In the NIST ThermoML archive (doi:10.1016/j.jct.2013.03.027):
Numbers after ± are expanded uncertainties.

How the values were obtained:
[1] = Crystal; visual observation
[2] = xn = mol fraction of the nth substance listed; details: 101 kPa, Liquid, Archimedean displacement method, x1 = 0.5

Normal melting temperature [1] | mass density ([2]; 1065 K) | mass density ([2]; 1069 K) | mass density ([2]; 1072 K) | mass density ([2]; 1073 K) | mass density ([2]; 1074 K) | mass density ([2]; 1078 K) | mass density ([2]; 1084 K) | SMILES
559 ± 1 °C |  |  |  |  |  |  |  | [Ag][I] [silver iodide]
 | 3670 ± 37 kg/m3 | 3669 ± 37 kg/m3 | 3664 ± 37 kg/m3 | 3663 ± 37 kg/m3 | 3660 ± 37 kg/m3 | 3657 ± 37 kg/m3 | 3652 ± 37 kg/m3 | [Ag][I] [silver iodide] + [Cl-].[Na+]
801 ± 1 °C |  |  |  |  |  |  |  | [Cl-].[Na+] [sodium chloride]
